Legend:
Format in all cases: functional
SK-MEL-28 = assay: Cytotoxicity against Homo sapiens (human) SK-MEL-28 cells assessed as growth inhibition at 10 uM after 48 hr by coulter counter analysis; details: SK-MEL-28, 48 h, read-out: GI
A549 = assay: Cytotoxicity against Homo sapiens (human) A549 cells assessed as growth inhibition at 10 uM after 48 hr by coulter counter analysis; details: A549, 48 h, read-out: GI
HCT-116 = assay: Cytotoxicity against Homo sapiens (human) HCT116 cells assessed as growth inhibition at 10 uM after 48 hr by coulter counter analysis; details: HCT-116, 48 h, read-out: GI
[1] = Cytotoxicity against Homo sapiens (human) NCI-ADR-RES cells assessed as growth inhibition at 10 uM after 48 hr by coulter counter analysis; details: read-out: GI
SK-OV-3 = assay: Cytotoxicity against Homo sapiens (human) SKOV3 cells assessed as growth inhibition at 10 uM after 48 hr by coulter counter analysis; details: SK-OV-3, 48 h, read-out: GI
SN12C = assay: Cytotoxicity against Homo sapiens (human) SN12C cells assessed as growth inhibition at 10 uM after 48 hr by coulter counter analysis; details: read-out: GI
A498 = assay: Cytotoxicity against Homo sapiens (human) A498 cells assessed as growth inhibition at 10 uM after 48 hr by coulter counter analysis; details: A498, 48 h, read-out: GI
TK-10 = assay: Cytotoxicity against Homo sapiens (human) TK10 cells assessed as growth inhibition at 10 uM after 48 hr by coulter counter analysis; details: TK-10, 48 h, read-out: GI
EKVX = assay: Cytotoxicity against Homo sapiens (human) EKVX cells assessed as growth inhibition at 10 uM after 48 hr by coulter counter analysis; details: read-out: GI
UACC-257 = assay: Cytotoxicity against Homo sapiens (human) UACC257 cells assessed as growth inhibition at 10 uM after 48 hr by coulter counter analysis; details: UACC-257, 48 h, read-out: GI
OVCAR-8 = assay: Cytotoxicity against Homo sapiens (human) OVCAR8 cells assessed as growth inhibition at 10 uM after 48 hr by coulter counter analysis; details: OVCAR-8, 48 h, read-out: GI
SW-620 = assay: Cytotoxicity against Homo sapiens (human) SW620 cells assessed as growth inhibition at 10 uM after 48 hr by coulter counter analysis; details: SW-620, 48 h, read-out: GI
M14 = assay: Cytotoxicity against Homo sapiens (human) M14 cells assessed as growth inhibition at 10 uM after 48 hr by coulter counter analysis; details: M14, 48 h, read-out: GI
SF-268 = assay: Cytotoxicity against Homo sapiens (human) SF268 cells assessed as growth inhibition at 10 uM after 48 hr by coulter counter analysis; details: SF-268, 48 h, read-out: GI
HT-29 = assay: Cytotoxicity against Homo sapiens (human) HT-29 cells assessed as growth inhibition at 10 uM after 48 hr by coulter counter analysis; details: HT-29, 48 h, read-out: GI
HOP-92 = assay: Cytotoxicity against Homo sapiens (human) HOP92 cells assessed as growth inhibition at 10 uM after 48 hr by coulter counter analysis; details: HOP-92, 48 h, read-out: GI
DU-145 = assay: Cytotoxicity against Homo sapiens (human) DU145 cells assessed as growth inhibition at 10 uM after 48 hr by coulter counter analysis; details: DU-145, 48 h, read-out: GI
Malme-3M = assay: Cytotoxicity against Homo sapiens (human) MALME-3M cells assessed as growth inhibition at 10 uM after 48 hr by coulter counter analysis; details: read-out: GI
IGROV-1 = assay: Cytotoxicity against Homo sapiens (human) IGROV1 cells assessed as growth inhibition at 10 uM after 48 hr by coulter counter analysis; details: IGROV-1, 48 h, read-out: GI
LOX IMVI = assay: Cytotoxicity against Homo sapiens (human) LOXIMVI cells assessed as growth inhibition at 10 uM after 48 hr by coulter counter analysis; details: read-out: GI
CAKI-1 = assay: Cytotoxicity against Homo sapiens (human) Caki1 cells assessed as growth inhibition at 10 uM after 48 hr by coulter counter analysis; details: CAKI-1, 48 h, read-out: GI
MDA-MB-231 = assay: Cytotoxicity against Homo sapiens (human) MDA-MB-231 cells assessed as growth inhibition at 10 uM after 48 hr by coulter counter analysis; details: MDA-MB-231, 48 h, read-out: GI
SR = assay: Cytotoxicity against Homo sapiens (human) SR cells assessed as growth inhibition at 10 uM after 48 hr by coulter counter analysis; details: read-out: GI
ACHN = assay: Cytotoxicity against Homo sapiens (human) ACHN cells assessed as growth inhibition at 10 uM after 48 hr by coulter counter analysis; details: read-out: GI
SK-MEL-2 = assay: Cytotoxicity against Homo sapiens (human) SK-MEL-2 cells assessed as growth inhibition at 10 uM after 48 hr by coulter counter analysis; details: SK-MEL-2, 48 h, read-out: GI
UO-31 = assay: Cytotoxicity against Homo sapiens (human) UO31 cells assessed as growth inhibition at 10 uM after 48 hr by coulter counter analysis; details: UO-31, 48 h, read-out: GI
KM12 = assay: Cytotoxicity against Homo sapiens (human) KM12 cells assessed as growth inhibition at 10 uM after 48 hr by coulter counter analysis; details: KM12, 48 h, read-out: GI
HCC 2998 = assay: Cytotoxicity against Homo sapiens (human) HCC2998 cells assessed as growth inhibition at 10 uM after 48 hr by coulter counter analysis; details: HCC 2998, 48 h, read-out: GI
SNB-19 = assay: Cytotoxicity against Homo sapiens (human) SNB19 cells assessed as growth inhibition at 10 uM after 48 hr by coulter counter analysis; details: SNB-19, 48 h, read-out: GI
MOLT-4 = assay: Cytotoxicity against Homo sapiens (human) MOLT4 cells assessed as growth inhibition at 10 uM after 48 hr by coulter counter analysis; details: MOLT-4, 48 h, read-out: GI
RXF 393 = assay: Cytotoxicity against Homo sapiens (human) RXF393 cells assessed as growth inhibition at 10 uM after 48 hr by coulter counter analysis; details: RXF 393, 48 h, read-out: GI
NCI-H23 = assay: Cytotoxicity against Homo sapiens (human) NCI-H23 cells assessed as growth inhibition at 10 uM after 48 hr by coulter counter analysis; details: NCI-H23, 48 h, read-out: GI
Hs-578T = assay: Cytotoxicity against Homo sapiens (human) Hs578T cells assessed as growth inhibition at 10 uM after 48 hr by coulter counter analysis; details: read-out: GI
NCI-H226 = assay: Cytotoxicity against Homo sapiens (human) NCI-H226 cells assessed as growth inhibition at 10 uM after 48 hr by coulter counter analysis; details: NCI-H226, 48 h, read-out: GI
OVCAR-4 = assay: Cytotoxicity against Homo sapiens (human) OVCAR4 cells assessed as growth inhibition at 10 uM after 48 hr by coulter counter analysis; details: OVCAR-4, 48 h, read-out: GI

Row | Compound | inhibition of growth at 10 µM (SK-MEL-28) [%] | inhibition of growth at 10 µM (A549) [%] | inhibition of growth at 10 µM (HCT-116) [%] | inhibition of growth at 10 µM [1] [%] | inhibition of growth at 10 µM (SK-OV-3) [%] | inhibition of growth at 10 µM (SN12C) [%] | inhibition of growth at 10 µM (A498) [%] | inhibition of growth at 10 µM (TK-10) [%] | inhibition of growth at 10 µM (EKVX) [%] | inhibition of growth at 10 µM (UACC-257) [%] | inhibition of growth at 10 µM (OVCAR-8) [%] | inhibition of growth at 10 µM (SW-620) [%] | inhibition of growth at 10 µM (M14) [%] | inhibition of growth at 10 µM (SF-268) [%] | inhibition of growth at 10 µM (HT-29) [%] | inhibition of growth at 10 µM (HOP-92) [%] | inhibition of growth at 10 µM (DU-145) [%] | inhibition of growth at 10 µM (Malme-3M) [%] | inhibition of growth at 10 µM (IGROV-1) [%] | inhibition of growth at 10 µM (LOX IMVI) [%] | also measured
1 | COc1ccc(-c2nc3c(c(=O)[nH]2)C(c2ccc(Cl)cc2)C2=C(CCCC2)N3)cc1OC (stereo not given) | < 10 | < 10 | < 10 | < 10 | < 10 | 12 | < 10 | < 10 | < 10 | < 10 | < 10 | < 10 | < 10 | < 10 | < 10 | < 10 | < 10 | < 10 | < 10 | < 10 | inhibition of growth at 10 µM (CAKI-1): < 10%; inhibition of growth at 10 µM (MDA-MB-231): 12.6%; inhibition of growth at 10 µM (SR): < 10%; inhibition of growth at 10 µM (ACHN): < 10%; inhibition of growth at 10 µM (SK-MEL-2): < 10%; inhibition of growth at 10 µM (UO-31): 41.7%; inhibition of growth at 10 µM (KM12): < 10%; inhibition of growth at 10 µM (HCC 2998): < 10%; inhibition of growth at 10 µM (SNB-19): < 10%; inhibition of growth at 10 µM (MOLT-4): < 10%; inhibition of growth at 10 µM (RXF 393): < 10%; inhibition of growth at 10 µM (NCI-H23): < 10%; inhibition of growth at 10 µM (Hs-578T): < 10%; inhibition of growth at 10 µM (NCI-H226): 11%; inhibition of growth at 10 µM (OVCAR-4): < 10%
2 | COc1ccc(C2C3=C(CCCC3)Nc3nc(-c4ccccc4)[nH]c(=O)c32)cc1OC (stereo not given) | < 10 | < 10 | < 10 | < 10 | < 10 | 10.8 | 13.2 | < 10 | < 10 | < 10 | < 10 | < 10 | < 10 | < 10 | < 10 | 13.3 | < 10 | < 10 | < 10 | < 10 | inhibition of growth at 10 µM (CAKI-1): 23.4%; inhibition of growth at 10 µM (MDA-MB-231): < 10%; inhibition of growth at 10 µM (SR): < 10%; inhibition of growth at 10 µM (ACHN): 18%; inhibition of growth at 10 µM (SK-MEL-2): < 10%; inhibition of growth at 10 µM (UO-31): 48.6%; inhibition of growth at 10 µM (KM12): < 10%; inhibition of growth at 10 µM (HCC 2998): < 10%; inhibition of growth at 10 µM (SNB-19): 10.7%; inhibition of growth at 10 µM (MOLT-4): < 10%; inhibition of growth at 10 µM (RXF 393): 14.4%; inhibition of growth at 10 µM (NCI-H23): < 10%; inhibition of growth at 10 µM (Hs-578T): < 10%; inhibition of growth at 10 µM (NCI-H226): 15.9%; inhibition of growth at 10 µM (OVCAR-4): < 10%
3 | COc1ccc(C2C3=C(CCCC3)Nc3nc(-c4ccc(N(C)C)cc4)[nH]c(=O)c32)cc1OC (stereo not given) | < 10 | < 10 | < 10 | < 10 | < 10 | 12.9 | 21.7 | < 10 | < 10 | < 10 | < 10 | < 10 | < 10 | < 10 | < 10 | < 10 | < 10 | < 10 | < 10 | < 10 | inhibition of growth at 10 µM (CAKI-1): 10.5%; inhibition of growth at 10 µM (MDA-MB-231): < 10%; inhibition of growth at 10 µM (SR): < 10%; inhibition of growth at 10 µM (ACHN): < 10%; inhibition of growth at 10 µM (SK-MEL-2): < 10%; inhibition of growth at 10 µM (UO-31): 29.4%; inhibition of growth at 10 µM (KM12): < 10%; inhibition of growth at 10 µM (HCC 2998): < 10%; inhibition of growth at 10 µM (SNB-19): < 10%; inhibition of growth at 10 µM (MOLT-4): < 10%; inhibition of growth at 10 µM (RXF 393): < 10%; inhibition of growth at 10 µM (NCI-H23): < 10%; inhibition of growth at 10 µM (Hs-578T): < 10%; inhibition of growth at 10 µM (NCI-H226): 13.6%; inhibition of growth at 10 µM (OVCAR-4): < 10%
4 | COc1ccc(-c2nc3c(c(=O)[nH]2)C(c2ccc(OC)c(OC)c2)C2=C(CCCC2)N3)cc1OC (stereo not given) | < 10 | < 10 | < 10 | < 10 | < 10 | 15 | < 10 | < 10 | < 10 | < 10 | 12.1 | < 10 | < 10 | 12.2 | < 10 | 26.3 | < 10 | < 10 | < 10 | 21.1 | inhibition of growth at 10 µM (CAKI-1): 13.5%; inhibition of growth at 10 µM (MDA-MB-231): < 10%; inhibition of growth at 10 µM (SR): 21.4%; inhibition of growth at 10 µM (ACHN): 28.8%; inhibition of growth at 10 µM (SK-MEL-2): < 10%; inhibition of growth at 10 µM (UO-31): 66.3%; inhibition of growth at 10 µM (KM12): < 10%; inhibition of growth at 10 µM (HCC 2998): < 10%; inhibition of growth at 10 µM (SNB-19): < 10%; inhibition of growth at 10 µM (MOLT-4): < 10%; inhibition of growth at 10 µM (RXF 393): 10.3%; inhibition of growth at 10 µM (NCI-H23): < 10%; inhibition of growth at 10 µM (Hs-578T): < 10%; inhibition of growth at 10 µM (NCI-H226): 13.3%; inhibition of growth at 10 µM (OVCAR-4): 10.8%

Source: ChEMBL document CHEMBL3045802, “Synthesis and in vitro antitumor activity of new quinoline, pyrimido[4,5-b]quinoline, [1,2,3]triazino[4,5-b]quinoline, and [1,2,4]triazolo[2,3:3,4]pyrimido[6,5-b]quinoline analogs” (2013)
